Where a SMILES comes first, the peptide text is derived from it. Bridges are numbered along the chain shown (N, C = ends).

One data set is described as follows: in vitro. Conditions: SD, rat, plasma.
The nature of data set [1]: Plasma stability of somatostatin peptide complex (remaining rate in rat plasma).
Experimental: (§1) The plasma stability was evaluated in vitro, in order to inspect the biostability of the somatostatin peptide complex.
(§2) SD rats were anesthetized with diethyl ether, whole blood was collected, and a plasma fraction was separated therefrom. The somatostatin or somatostatin peptide complex was added to the plasma so that the final concentration thereof was 0.5 μmol/L, and the mixture was incubated at 37° C. A sample was recovered after 0, 8 or 48 hours, and a remaining rate was evaluated by an HPLC/MS measurement of an amount of the somatostatin or somatostatin peptide complex.
The target in another data set is T1, endogenous SSTR 5 (Mus musculus, UniProt O08858).
T1 construct: expressing an endogenous SSTR 5; endogenous in cells; host or cells: MIN 6 mouse insulinoma cells (obtained from a person)
T1 sequence (O08858 1-362): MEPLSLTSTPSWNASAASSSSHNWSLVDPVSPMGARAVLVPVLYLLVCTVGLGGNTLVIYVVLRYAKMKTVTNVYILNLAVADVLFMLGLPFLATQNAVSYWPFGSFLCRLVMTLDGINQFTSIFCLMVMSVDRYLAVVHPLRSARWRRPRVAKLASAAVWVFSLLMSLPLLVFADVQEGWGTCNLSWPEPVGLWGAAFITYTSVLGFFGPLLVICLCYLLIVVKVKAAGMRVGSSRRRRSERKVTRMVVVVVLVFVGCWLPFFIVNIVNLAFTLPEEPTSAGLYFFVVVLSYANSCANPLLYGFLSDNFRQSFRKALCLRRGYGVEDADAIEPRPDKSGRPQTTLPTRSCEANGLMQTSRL
Put plainly: Suppressibility of insulin secretion in MIN 6 cells. Particulars: 20 mM glucose, 1-1000 nM. It is filed as cell-based. How it is done: The suppressibility of insulin secretion was evaluated using MIN 6 (obtained from a person) which was an insulinoma cell derived from a mouse, expressing an endogenous SSTR 5. MIN 6 was seeded on a multi-plate, which was cultivated at 37° C. for 48 hours. […] A supernatant thereof was recovered, and an amount of insulin secreted was measured. The measurement of the insulin was performed in an enzyme-linked immunosorbent assay (ELISA), and an absorbance was measured at 450 nm (a sub-wavelength: 620 nm) after the addition of a substrate.
In this experiment, the activity evaluations of the native SRIF (Comparative Example 15) and the GAm (28-44)-SRIF-NH2(Example 29) were performed in a concentration of 1, 3, 10, 30, 100, 300, and 1000 nM, and the maximum suppression rate (%) of the insulin secretion was calculated. The maximum suppression rate (%) of the insulin secretion in the somatostatin peptide complex was calculated according to the following formula. Maximum Suppression Rate (%) of Insulin Secretion (%)=[{(the maximum value of the suppression of the insulin secretion in the SRIF peptide complex)/(the maximum value of the suppression of the insulin secretion in the native SRIF)]×100

For a further data set, the system named is db/db mice. Briefly: Sustained blood glucose-lowering effect in type 2 diabetes mellitus model mice. It is filed as in vivo. Conditions: subcutaneous, 50 nmol/kg.

Experimental for db/db mice: The improvement of the biostability was evaluated using a duration time of blood glucose-lowering effect in vivo as an indicator. […] The blood glucose level was measured using Glucose Test Wako (Wako Pure Chemical Industries, Ltd.).
Experimental for in vitro: as §1, §2

As a reminder, the share remaining is what is left of the initial amount, in per cent. A low value points to a greater loss. In “in vitro”, `CC[C@H](C)[C@H](NC(=O)[C@H](CCC(=O)O)NC(=O)[C@H](CC(=O)O)NC(=O)[C@@H](NC(=O)[C@H](CC(C)C)NC(=O)[C@H](C)NC(=O)[C@H](CCCCN)NC(=O)[C@@H](NC(=O)CNC(=O)[C@H](CCC(=O)O)NC(=O)[C@@H](NC(=O)[C@@H](NC(=O)[C@H](CCCCN)NC(=O)[C@H](C)NC(=O)[C@@H]1CSSC[C@H](NC(=O)CNC(=O)[C@H](C)N)C(=O)N[C@@H](CCCCN)C(=O)N[C@@H](CC(N)=O)C(=O)N[C@@H](Cc2ccccc2)C(=O)N[C@@H](Cc2ccccc2)C(=O)N[C@@H](Cc2c[nH]c3ccccc23)C(=O)N[C@@H](CCCCN)C(=O)N[C@@H]([C@@H](C)O)C(=O)N[C@@H](Cc2ccccc2)C(=O)N[C@@H]([C@@H](C)O)C(=O)N[C@@H](CO)C(=O)N1)[C@@H](C)O)C(C)C)C(C)C)[C@@H](C)CC)C(=O)N[C@@H](CC(C)C)C(=O)N[C@@H](C)C(=O)N[C@@H](C)C(N)=O` [Example 28, SRIF(1-14)-GAm(28-44)-NH2] (H-AGCKNFFWKTFTSCAKTVEGVKALIDEILAA-NH2; disulfide 3-14; N-terminus assumed) displayed a fraction remaining at 8 h, 0.5 μmol/L of 56% and an amount remaining at 48 h, 0.5 μmol/L of 0%.
In data set [1] (SD, rat, plasma), `CC[C@H](C)[C@H](NC(=O)[C@H](CCC(=O)O)NC(=O)[C@H](CC(=O)O)NC(=O)[C@@H](NC(=O)[C@H](CC(C)C)NC(=O)[C@H](C)NC(=O)[C@H](CCCCN)NC(=O)[C@@H](NC(=O)CNC(=O)[C@H](CCC(=O)O)NC(=O)[C@@H](NC(=O)[C@@H](NC(=O)[C@H](CCCCN)NC(=O)[C@H](C)N)[C@@H](C)O)C(C)C)C(C)C)[C@@H](C)CC)C(=O)N[C@@H](CC(C)C)C(=O)N[C@@H](C)C(=O)N[C@@H](C)C(=O)N[C@@H](C)C(=O)NCC(=O)N[C@H]1CSSC[C@@H](C(N)=O)NC(=O)[C@H](CO)NC(=O)[C@H]([C@@H](C)O)NC(=O)[C@H](Cc2ccccc2)NC(=O)[C@H]([C@@H](C)O)NC(=O)[C@H](CCCCN)NC(=O)[C@H](Cc2c[nH]c3ccccc23)NC(=O)[C@H](Cc2ccccc2)NC(=O)[C@H](Cc2ccccc2)NC(=O)[C@H](CC(N)=O)NC(=O)[C@H](CCCCN)NC1=O` [Example 29, GAm(28-44)-SRIF(1-14)-NH2] (H-AKTVEGVKALIDEILAAAGCKNFFWKTFTSC-NH2; disulfide 20-31; N-terminus assumed) yielded a fraction remaining at 8 h, 0.5 μmol/L of 80% and a share remaining at 48 h, 0.5 μmol/L of 23%. Also, the “Remaining rate in plasma after 8 hours (%)” value in data set [1] (somatostatin complexes, rat plasma, 0.5 μmol/L, 37° C., 8 hours) came to 80%. Besides, in data set [1] (somatostatin complexes, rat plasma, 0.5 μmol/L, 37° C., 48 hours), the “Remaining rate in plasma after 48 hours (%)” value is recorded as 23%. Further, the “Suppression rate of insulin secretion (%), maximum, relative to native SRIF” value on endogenous SSTR 5 worked out at 90%.
Turning to “[Ser8]-GLP-1(7-36)-NH2 [Comparative Example 2]”, the “Time after administration at which the glucose-lowering effect disappeared” value in the data set on db/db mice was “two hours”.

The record behind these values is patent US20130123460A1, “PEPTIDE FOR IMPROVING BIOSTABILITY OF BIOACTIVE SUBSTANCE, AND BIOACTIVE SUBSTANCE HAVING IMPROVED BIOSTABILITY” (priority 2010, published 2013).
